Measured values taken from ChEMBL document CHEMBL5500419, “Discovery of GPR84 Fluorogenic Probes Based on a Novel Antagonist for GPR84 Bioimaging” (J Med Chem, 2024).

Biological target: G-protein coupled receptor 84 (Homo sapiens, UniProt Q9NQS5)
Sequence (Q9NQS5 whole entry): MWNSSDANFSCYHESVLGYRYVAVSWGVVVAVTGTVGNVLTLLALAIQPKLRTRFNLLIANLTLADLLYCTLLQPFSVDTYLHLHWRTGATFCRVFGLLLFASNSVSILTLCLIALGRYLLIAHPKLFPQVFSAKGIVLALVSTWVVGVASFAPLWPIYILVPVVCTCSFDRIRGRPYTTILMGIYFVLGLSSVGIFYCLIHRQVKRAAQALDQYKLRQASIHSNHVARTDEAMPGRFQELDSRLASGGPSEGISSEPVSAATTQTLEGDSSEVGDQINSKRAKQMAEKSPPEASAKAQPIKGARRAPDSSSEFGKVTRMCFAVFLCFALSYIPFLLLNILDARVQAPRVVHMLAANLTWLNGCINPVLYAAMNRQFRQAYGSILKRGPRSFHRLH
Description: Antagonist activity at human GPR84 expressed in HEK293 cells co-expressing Galpha16 assessed as inhibition of 6-OAU-induced calcium response

IC50: > 100 µM
Structure (SMILES): Cc1cc2ccccc2c2c1OP(=O)(O)Oc1c(C)cc3ccccc3c1-2
